Experiment [1] deals with antigen-induced arthritis (knee joint). Briefly: Antigen-induced arthritis of rats: lateral joint diameter of the right knee joint after intraarticular injection. The following applies: for Joint diameter (right), Day 0: day 0, joint diameter before induction of arthritis (baseline); for Joint diameter (right), day 1, difference with respect to day 0 / Joint diameter (right), measured value on day 1: day 1 after induction; for Increase of joint diameter (right) from day 0 to day 1: day 1, increase after induction, before treatment takes effect. Format: in vivo, rat (female Wistar). The arrangement: Joint diameter (right), Day 0: unit not given here. As for the experimental part:
The animal model employed, antigen-induced arthritis of rats, is a well established animal model which reflects the mechanisms of rheumatoid arthritis (RA) very well. […] Female Wistar rats are employed for this experiment. At an interval of one week, the animals are subcutaneously preimmunized with 0.1 mg of methylalbumin (mBSA) in Freund's complete adjuvant. Two weeks after the second immunization, 0.1 mg of mBSA is injected intraarticularly into the […] knee joint. This injection induces arthritis, which persists for weeks after an acute phase. One day after the induction of the arthritis, the treatment is begun with sulfated hyaluronic acid solution or with high molecular weight hyaluronic acid (MW=1,800 kD), which are injected intraarticularly into the knee joint. The immunization of the animals was effected at an interval of 7 days. In the first immunization, a total of four subcutaneous injections of 0.25 ml each (corresponding to 0.1 mg of methylalbumin in Freund's complete adjuvant) were effected on both sides of the vertebral column at the level of the shoulder blade and above the hip (each at about 1.5 cm distance from the spines of the vertebrae). In the 2nd immunization, 3 depots of 0.3 ml of solution each were introduced; one exactly between the two shoulder blades and two at the level of the abdomen on both sides paravertebrally. The induction of arthritis was effected two weeks after the 2nd immunization by […] injection of 0.05 ml each of a 10 mg/ml solution of mBSA in physiological saline into the respective right knee joint. On the day after induction of arthritis, 0.05 ml each of a formulation containing sulfated HA was injected into the right knee joint of the 20 animals of the experimental group (use of an insulin syringe, thin cannula, 0.35×40 mm). Thereafter, injection was effected once a week (long-term group). The lateral joint diameter of all animals was measured by means of a distance meter (Matatuyo) prior to and 1, 4 and 8 days after the induction of arthritis and then every week until the experiment was completed. The animals were also weighed each time. On the 7th day, 10 animals of the experimental group and 10 animals of the control group were killed. The animals were put down by ether anesthesia, and the sacrifice of the remaining animals was effected 1 week after the last injection of a formulation containing sulfated HA into the right knee joint.

Experiment [2] has the same test system. The experiment is described as above. The class given is in vivo, rat (female Wistar). To be noted: short-term experiment, 0.05 ml intraarticular on day 1.
The mark [3] stands for this setting: long-term experiment, intraarticular injection day 1, then once a week.
The mark [4] stands for this setting: short-term experiment, 0.05 ml intraarticular on day 1.

With “hyaluronic acid [HA, reference compound]”, in experiment [1] (long-term experiment), the “Joint diameter (right), Day 0” value is reported as 926.0; the “Joint diameter (right), day 1, difference with respect to day 0” value was “+206”; the “Joint diameter (right), measured value on day 1” value turned out to be 1132.9. Besides, in experiment [1] (setting [3]), the “Decrease or increase of joint diameter (right) after the injection on day 1, Day 4” value (“Decrease or increase of joint diameter … Day 4” for short) is given as “+27”; the “Decrease or increase of joint diameter (right) after the injection on day 1, Day 8” value (from here on “Decrease or increase of joint diameter … Day 8”) is on record as −97; the “Decrease or increase of joint diameter (right) after the injection on day 1, Day 15” value is −140; the “Decrease or increase of joint diameter (right) after the injection on day 1, Day 22” value was −144. Moreover, in experiment [1] (setting [3]), the “Decrease or increase of joint diameter (right) after the injection on day 1, Day 29” value is −134. In experiment [1] (setting [4]), the “Decrease or increase of joint diameter … Day 4” value is on record as “+18”. Also, in experiment [1] (short-term experiment), the “Joint diameter (right), Day 0” value is listed as 913.2 and the “Increase of joint diameter (right) from day 0 to day 1” value is on record as “+206”. The “Decrease or increase of joint diameter … Day 8” value in experiment [2] is reported as −45.

sulfated hyaluronic acid [Sulfated HA]: the “Joint diameters (as a measure of the inflammatory swelling), result in words” value in experiment [1] (long-term experiment over 3 weeks) is “significant decrease of the joint diameters”. In experiment [1] (long-term experiment), the “Joint diameter (right), Day 0” value was 927.6; the “Joint diameter (right), day 1, difference with respect to day 0” value is listed as “+226”; the “Joint diameter (right), measured value on day 1” value is on record as 1153.9. Also, in experiment [1] (setting [3]), the “Decrease or increase of joint diameter … Day 4” value was −4; the “Decrease or increase of joint diameter … Day 8” value is −127; the “Decrease or increase of joint diameter (right) after the injection on day 1, Day 15” value is reported as −203; the “Decrease or increase of joint diameter (right) after the injection on day 1, Day 22” value was −212. The “Decrease or increase of joint diameter (right) after the injection on day 1, Day 29” value in experiment [1] (setting [3]) was −231. For the same substance, the “Decrease or increase of joint diameter … Day 4” value in experiment [1] (setting [4]) was “+20”. In addition, in experiment [1] (short-term experiment), the “Joint diameter (right), Day 0” value was 867.4 and the “Increase of joint diameter (right) from day 0 to day 1” value is given as “+228”. Further, the “Decrease or increase of joint diameter … Day 8” value in experiment [2] is reported as −118.

The record behind these values is patent US20040053885A1, “Use of hyaluronic acid derivatives for the prevention of inflammatory arthritis” (priority 2000, published 2004).
